{
  "source": "patent US4428942A",
  "about": "“Analogs of somatostatin” (The Salk Institute for Biological Studies, priority 1982, dated 1984)",
  "key": {"[1]": {"test_system": "secretion of insulin", "conditions": "in vivo", "method": "(§1) In vivo experiments are carried out with the analogs, using the procedure described in Brown et al., Metabolism (1976) Vol. 25, pp. 1501-1503, to determine the potency, relative to somatostatin-14, to inhibit the secretion of glucagon and insulin stimulated by the administration of arginine to groups of six rats."}, "[2]": {"test_system": "isolated rabbit ileum", "method": "The analogs are tested in vitro in isolated rabbit ileum using the modified Ussing chamber technique, as described in Amer. J. of Physiol., 225:776-780 (1973). Unidirectional chloride fluxes are determined and used to characterize bi-directional fluxes following the addition of an SS-analog. Changes are measured with varying concentrations, and the potency to inhibit ion transport is quantitated and expressed as a percentage of the potency of SS-14."}, "[3]": {"test_system": "release of growth hormone induced by isobutyl methyl xanthine in pituitary cells", "assay_type": "cell-based, rat", "method": "To determine the effectiveness of the peptides to inhibit the release of growth hormone, in vitro radioimmunoassays are carried out using the SS analogs in side-by-side comparison with equimolar concentrations of somatostatin-14 having a known effectiveness to inhibit the release of growth hormone induced by the application of isobutyl methyl xanthine to pituitary cells. Cultures are used which include cells of rat pituitary glands removed some four to five days previously in a system that minimizes enzymatic degradation, generally following the procedure set forth in Vale et al., Methods in Enzymology, Hormones and Cyclic Nucleotides (1975) Vol. 37, p. 82. Both cultures of a defined standard medium and cultures which are considered optimal for the secretion of growth hormone, as a result of having additions of either 2% or 10% of serum from a foetal calf, are used for the comparative testing."}, "[4]": {"test_system": "secretion of glucagon", "parameters": "species or system rats", "conditions": "in vivo", "method": "as §1"}, "[5]": {"conditions": "arginine-stimulated, rats, SS-14 = 100"}, "[6]": {"conditions": "isolated rabbit ileum, Ussing chamber, chloride fluxes, SS-14 = 100"}, "[7]": {"conditions": "cultured rat pituitary cells, isobutyl methyl xanthine-induced release, SS-14 = 100"}},
  "note": "Like-named read-outs stand apart in the source and are kept apart here. Bridge positions count the residues as written; N and C are the ends. Peptide text beside a SMILES is read from it.",
  "data": [
    {"compound": "C[C@H](N)C(=O)NCC(=O)N[C@H]1CSSC[C@@H](C(=O)O)NC(=O)[C@H](CO)NC(=O)[C@H]([C@@H](C)O)NC(=O)[C@H](Cc2ccccc2)NC(=O)[C@H]([C@@H](C)O)NC(=O)[C@H](CCCCN)NC(=O)[C@H](Cc2c[nH]c3ccccc23)NC(=O)[C@H](Cc2ccccc2)NC(=O)[C@H](Cc2ccccc2)NC(=O)[C@H](CCCCN)NC1=O", "note": "[Peptide 13, des-Asn^5 --SS] (H-AGCKFFWKTFTSC-OH; disulfide 3-13)", "values": [
      {"measurement": "Insulin (potency to inhibit insulin secretion relative to SS-14)", "setting": "[1]; [5]", "result": 10, "unit": "%"},
      {"measurement": "Ion Transport (potency to inhibit ion transport expressed as a percentage of the potency of SS-14)", "setting": "[2]; [6]", "result": 11, "unit": "%"},
      {"measurement": "GH (potency for the inhibition of GH release relative to SS-14)", "setting": "[3]; [7]", "result": 4, "unit": "%"},
      {"measurement": "Glucagon (potency to inhibit glucagon secretion relative to SS-14)", "setting": "[4]; [5]", "result": "< 1", "unit": "%"}
    ]},
    {"compound": "C[C@H](N)C(=O)NCC(=O)N[C@H]1CSSC[C@@H](C(=O)O)NC(=O)[C@H](CO)NC(=O)[C@H](Cc2ccccc2)NC(=O)[C@H]([C@@H](C)O)NC(=O)[C@H](CCCCN)NC(=O)[C@H](Cc2c[nH]c3ccccc23)NC(=O)[C@H](Cc2ccccc2)NC(=O)[C@H](Cc2ccccc2)NC(=O)[C@H](CC(N)=O)NC(=O)[C@H](CCCCN)NC1=O", "note": "[Peptide 7, des-Thr^12 --SS] (H-AGCKNFFWKTFSC-OH; disulfide 3-13)", "values": [
      {"measurement": "Insulin (potency to inhibit insulin secretion relative to SS-14)", "setting": "[1]; rat", "result": "< 1", "unit": "%"},
      {"measurement": "Ion Transport (potency to inhibit ion transport expressed as a percentage of the potency of SS-14)", "setting": "[2]", "result": 21, "unit": "%"},
      {"measurement": "GH (potency for the inhibition of GH release relative to SS-14)", "setting": "[3]", "result": 2, "unit": "%"},
      {"measurement": "Glucagon (potency to inhibit glucagon secretion relative to SS-14)", "setting": "[4]; rat", "result": "< 1", "unit": "%"}
    ]},
    {"compound": "C[C@H](N)C(=O)NCC(=O)N[C@H]1CSSC[C@H](C(=O)O)NC(=O)[C@H](CO)NC(=O)[C@H]([C@@H](C)O)NC(=O)[C@H](Cc2ccccc2)NC(=O)[C@H]([C@@H](C)O)NC(=O)[C@H](CCCCN)NC(=O)[C@H](Cc2c[nH]c3ccccc23)NC(=O)[C@H](Cc2ccccc2)NC(=O)[C@H](Cc2ccccc2)NC(=O)[C@H](CC(N)=O)NC(=O)[C@H](CCCCN)NC1=O", "note": "[Peptide 17, [D-Cys^14]--SS]", "values": [
      {"measurement": "Insulin (potency to inhibit insulin secretion relative to SS-14)", "setting": "[1]; [5]", "result": 20, "unit": "%"},
      {"measurement": "Ion Transport (potency to inhibit ion transport expressed as a percentage of the potency of SS-14)", "setting": "[2]; [6]", "result": 336, "unit": "%"},
      {"measurement": "GH (potency for the inhibition of GH release relative to SS-14)", "setting": "[3]; [7]", "result": 270, "unit": "%"},
      {"measurement": "Glucagon (potency to inhibit glucagon secretion relative to SS-14)", "setting": "[4]; [5]", "result": 310, "unit": "%"}
    ]}
  ]
}
